From patent publication US10011586B2, “Heterocyclic compound, method for preparing the same, and pharmaceutical composition comprising the same” (Daewoong Pharmaceutical Co., Ltd., priority 2015, dated 2018)
Read-outs that look alike come from different tables or passages of the source.

Assays:
[1] = target: T1, PRS enzyme (Homo sapiens, UniProt P07814); assay: PRS enzyme activity inhibition experiment; type: biochemical
T1 construct: the portion corresponding to PRS in cDNA of EPRS was subcloned; made in house
T1 sequence (P07814 1007-1512 limits assumed): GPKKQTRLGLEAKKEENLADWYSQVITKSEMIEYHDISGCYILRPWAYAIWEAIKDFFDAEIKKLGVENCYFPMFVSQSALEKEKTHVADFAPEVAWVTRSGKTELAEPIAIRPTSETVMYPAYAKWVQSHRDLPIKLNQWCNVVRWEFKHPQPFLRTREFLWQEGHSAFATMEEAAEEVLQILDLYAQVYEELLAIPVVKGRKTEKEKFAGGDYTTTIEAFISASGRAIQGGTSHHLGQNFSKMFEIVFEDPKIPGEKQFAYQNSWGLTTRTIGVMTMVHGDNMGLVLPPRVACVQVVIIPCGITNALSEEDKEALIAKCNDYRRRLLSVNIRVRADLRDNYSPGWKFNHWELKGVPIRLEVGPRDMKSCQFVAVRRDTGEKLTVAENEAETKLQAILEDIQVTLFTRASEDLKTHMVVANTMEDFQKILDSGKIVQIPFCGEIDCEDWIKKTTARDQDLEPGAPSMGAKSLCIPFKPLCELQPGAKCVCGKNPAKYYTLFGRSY
Method: Specifically, the portion corresponding to PRS in cDNA of EPRS was subcloned, and the obtained high-purity PRS protein was purified and used in the experiment. The compounds (1 μM) prepared in Examples were added into the reaction buffer (20 mM KPO4 (pH 7.4), 6 mM MgAc, 5 mM ATP, […] tRNA, 0.5 mM DTT, […][^3H]proline (1 mCi/mL)) and allowed to react at 37° C. for 5 to 10 minutes. The reaction was terminated with 3M paper that was in advance dried by addition of 5% TCA. The radioactivity was measured using a liquid scintillation counter.
% Inhibition and IC50 values of the respective compounds were calculated and analyzed using Microsoft Excel or Sigma Plot 8.0. In Table 1, the results are divided into A, B and C according to the range of IC50.

[2] = tested on: NCI-H460 cells; assay: Cancer cell growth inhibition experiment (MTT assay); type: cell-based; conditions: Homo sapiens, lung cancer cell line, compounds 48 hours, cell viability by MTT assay
Method: NCl-H460 cells, lung cancer cell lines, were cultured in 5% CO2, 37° C. incubator using a flask for 75 cm^2 tissue culture. 96-well plates were used for the evaluation. These were prepared by differently applying at concentrations in the range of 6,000 to 12,000 cells/well according to the growth rate of the cell lines. The medium containing 5% FBS were dispensed in 200 μL/well and used. The medium were cultured for 24 hours. After confirming the cell status and dispensing form of a 96-well plate under a microscope, they were used for subsequent experiments. The compounds were evaluated at concentrations of 100, 30, 10, 3, 1, 0.3, 0.03, 0.01 μM. After removing the existing medium, the compounds with various concentrations were treated in an amount of 200 μL/well. The compounds-treated plates were further cultured for 48 hours, and the cell viabilities were measured by MTT assay to calculate IC50 values.
% Inhibition and IC50 values of the respective compounds were calculated and analyzed using Sigma Plot 8.0. In Table 2, the results are divided into A, B and C according to the range of IC50. The case where the derived IC50 is 3 μM or less is represented by “A”, the case where the IC50 is 3 to 10 μM is represented by “B”, and the case where the IC50 is 10 μM or higher is represented by “C”.

[3] = purified PRS protein subcloned from EPRS cDNA, [3H]proline, 37° C., 5 to 10 minutes, liquid scintillation counter, read-out: PRS IC50

Row | IC50 [1, 3] [nM] | IC50 [2] [µM] | SMILES | IC50 [1] [nM]
1 | 100 to 500 | ≥ 10 | O=C(C[C@H]1NCCC[C@@H]1O)Cn1cnc2cccc(-c3cccc(Cl)c3)c21 [Example 50, 1-(7-(3-chlorophenyl)-1H-benzo[d]imidazol-1-yl)-3-((2R,3S)-3-hydroxypiperidin-2-yl)propan-2-one] | 
2 | 100 to 500 | ≥ 10 | O=C(C[C@H]1NCCC[C@@H]1O)Cn1cnc2cccc(-c3ccc(C(F)(F)F)cc3)c21 [Example 54, 1-((2R,3S)-3-hydroxypiperidin-2-yl)-3-(7-(4-(trifluoromethyl)phenyl)-1H-benzo[d]imidazol-1-yl)propan-2-one] | 
3 | > 500 | ≥ 10 | O=C(C[C@H]1NCCC[C@@H]1O)Cn1c(CO)nc2cc(-c3cccc(F)c3)ccc21 [Example 56, 1-(5-(3-fluorophenyl)-2-(hydroxymethyl)-1H-benzo[d]imidazol-1-yl)-3-((2R,3S)-3-hydroxypiperidin-2-yl)propan-2-one] | 
4 | < 100 | 3 to 10 | O=C(C[C@H]1NCCC[C@@H]1O)Cn1c(CO)nc2ccc(-c3ccccc3)cc21 [Example 57, 1-(2-(hydroxymethyl)-6-phenyl-1H-benzo[d]imidazol-1-yl)-3-((2R,3S)-3-hydroxypiperidin-2-yl)propan-2-one] | 
5 | < 100 | 3 to 10 | O=C(C[C@H]1NCCC[C@@H]1O)Cn1c(CO)nc2ccc(-c3ccccc3F)cc21 [Example 58, 1-(6-(2-fluorophenyl)-2-(hydroxymethyl)-1H-benzo[d]imidazol-1-yl)-3-((2R,3S)-3-hydroxypiperidin-2-yl)propan-2-one] | 
6 | < 100 | ≤ 3 | O=C(C[C@H]1NCCC[C@@H]1O)Cn1c(CO)nc2ccc(-c3cccc(F)c3)cc21 [Example 59, 1-(6-(3-fluorophenyl)-2-(hydroxymethyl)-1H-benzo[d]imidazol-1-yl)-3-((2R,3S)-3-hydroxypiperidin-2-yl)propan-2-one] | 
7 | < 100 | ≥ 10 | O=C(C[C@H]1NCCC[C@@H]1O)Cn1c(CO)nc2ccc(-c3ccc(F)cc3)cc21 [Example 60, 1-(6-(4-fluorophenyl)-2-(hydroxymethyl)-1H-benzo[d]imidazol-1-yl)-3-((2R,3S)-3-hydroxypiperidin-2-yl)propan-2-one] | 
8 | 100 to 500 | ≤ 3 | O=C(C[C@H]1NCCC[C@@H]1O)Cn1c(CO)nc2ccc(-c3cccc(C(F)(F)F)c3)cc21 [Example 61, 1-(2-(hydroxymethyl)-6-(3-(trifluoromethyl)phenyl)-1H-benzo[d]imidazol-1-yl)-3-((2R,3S)-3-hydroxypiperidin-2-yl)propan-2-one] | 
9 | < 100 | ≥ 10 | OC(C[C@H]1NCCC[C@@H]1O)Cn1cnc2ccc(-c3cccc(Cl)c3)nc21 (stereo partly drawn) [Example 62, (2R,3S)-2-(3-(5-(3-chlorophenyl)-3H-imidazo[4,5-b]pyridin-3-yl)-2-hydroxypropyl)piperidin-3-ol] | 
10 | 100 to 500 | ≥ 10 | OC(C[C@H]1NCCC[C@@H]1O)Cn1cnc2ccc(-c3cccc(Cl)c3)cc21 (stereo partly drawn) [Example 63, (2R,3S)-2-(3-(6-(3-chlorophenyl)-1H-benzo[d]imidazol-1-yl)-2-hydroxypropyl)piperidin-3-ol] | 

Row | SMILES | IC50 [1, 3] [nM] | IC50 [2] [µM] | IC50 [1] [nM]
11 | O=C(C[C@H]1NCCC[C@@H]1O)Cn1cnc2cccc(-c3ccc(Cl)cc3)c21 [Example 51, 1-(7-(4-chlorophenyl)-1H-benzo[d]imidazol-1-yl)-3-((2R,3S)-3-hydroxypiperidin-2-yl)propan-2-one] |  | ≥ 10 | 100 to 500
